Assay results published in patent publication US11174282B2, “Aminosteroid derivatives and process for producing same” (UNIVERSITÉ LAVAL, priority 2016, dated 2021).
Read-outs that look alike come from different tables or passages of the source.

Key:
[1] = system: LAPC-4 (prostate cancer) cells; assay: Cell proliferation assay (MTS), LAPC-4; type: cell-based; settings: Homo sapiens, LAPC4, 72 h, 3 days treatment, MTS; read-out: IC50 (μM) Prostate cancer LAPC-4
Description: (§1) The different aminosteroids were dissolved in methanol (50 mM).

[2] = system: T-47D breast cancer cell line; assay: Cell proliferation assay (MTS), T-47D; type: cell-based; settings: Homo sapiens, T47D, 72 h; 3 days treatment, MTS
Description: as §1

[3] = system: Human pancreas cancer cells (PANC-1); assay: Cell proliferation assay (MTS), PANC-1; type: cell-based; settings: for IC50: 3 days treatment, MTS, read-out: IC50 (μM) Pancreatic cancer PANC-1; for antiproliferative activity relative to RM-133, PANC-1: fold of RM-133 activity (>1 = more active)
Description: as §1

[4] = system: PC-3 (prostate cancer) cells; assay: Cell proliferation assay (MTS), PC-3; type: cell-based; settings: 72 h; 3 days treatment, MTS; read-out: IC50 (μM) Prostate cancer PC-3
Description: as §1

[5] = system: MCF-7 breast cancer cells; assay: Cell proliferation assay (MTS), MCF-7; type: cell-based, human; settings: Homo sapiens, MCF7, 72 h, 3 days treatment
Description: as §1

[6] = system: LNCaP (prostate cancer) cells; assay: Cell proliferation assay (MTS), LNCaP; type: cell-based; settings: Homo sapiens, 72 h, 3 days treatment, MTS, read-out: IC50 (μM) Prostate cancer LNCaP
Description: as §1

[7] = system: OVCAR-3 cells (ovarian cancer); assay: Cell proliferation assay (MTS), OVCAR-3; type: cell-based; settings: for IC50: 3 days treatment, MTS, read-out: IC50 (μM) Ovarian cancer OVCAR-3; for antiproliferative activity relative to RM-133, OVCAR-3: fold of RM-133 activity (>1 = more active)
Description: as §1

[8] = system: primary pancreas normal cells; assay: Toxicity on normal cells (MTS), primary pancreas; type: cell-based, human; settings: for Selectivity Index Pancreas: IC50 normal cells/IC50 cancer cells (primary pancreas / PANC-1); for IC50: human normal cells; for times more toxic relative to RM-133, primary pancreas cells: human, 3 days
Description: as §1

[9] = system: primary ovary normal cells; assay: cells; type: cell-based, human; settings: for Selectivity Index Ovary: IC50 normal cells/IC50 cancer cells (primary ovary / OVCAR-3); for IC50: human normal cells, read-out: IC50 (μM) Primary Ovary (normal cells)
Description: as §1

[10] = Metabolic stability assay, human liver microsomes; settings: 1 h
Description: (§2) Assays were performed at 37° C. for 1 h, with or without 10 mM NADPH in the presence of 40 μg of human liver microsome from Corning (Melrose, Mass., USA) and 10 μM of aminosteroid substrate in a final 100 μL volume of 50 mM Tris buffer (pH 7.4) supplemented with 10 mM MgCl2. Assays were ended by adding 100 μL of MeOH followed by centrifugation at 13,000 g for 10 min to obtain a pellet of proteins. The supernatant of 2 assays was pooled and submitted to HPLC-MS analysis (Shimadzu LCMS-2020 APCI, Alltima HP C18 (250 mm×4.6 mm, 5 μm) column, MeOH:H2O gradient). Remaining substrate (expressed in %) was calculated by dividing the area under the curve of the substrate for the assays without NADPH by the area under the curve of the substrate for the assays with NADPH and multiplied by 100. Values represent the average of 2 independent experiments.

[11] = system: HL-60 (acute promyelocytic leukemia) cells; assay: Cell proliferation assay (MTS), HL-60; type: cell-based; settings: for IC50: 3 days treatment, MTS, read-out: IC50 (μM) HL-60 (leukemia); for antiproliferative activity relative to RM-133, HL-60: fold of RM-133 activity (>1 = more active)
Description: as §1

[12] = human, 1 h
Description: as §2

[13] = system: renal proximal tubule epithelial cells (RPTEC); assay: Toxicity on normal cells (MTS), RPTEC; type: cell-based, human; settings: for IC50: normal (kidney) cells, read-out: IC50 (μM) RPTEC (normal cells)
Description: as §1

| Compound | IC50 [1] [µM] | IC50 ([3]; Homo sapiens, PANC-1, 72 h) [µM] | IC50 [4] [µM] | IC50 [6] [µM] | IC50 ([7]; Homo sapiens, OVCAR-3, 72 h) [µM] | antiproliferative activity relative to RM-133, PANC-1 [3] | antiproliferative activity relative to RM-133, HL-60 [11] | antiproliferative activity relative to RM-133, OVCAR-3 [7] | IC50 ([11]; Homo sapiens, HL-60, 72 h) [µM] | other results |
| --- | --- | --- | --- | --- | --- | --- | --- | --- | --- | --- |
| C#C[C@]1(O)CC[C@H]2[C@@H]3CCc4cc(OC)c(CN5CCN(C(=O)[C@@H]6CCCN6C(=O)c6ccc7ccccc7n6)CC5)cc4[C@H]3CC[C@@]21C [Compound 29] | 0.7 ± 0.2 | 2.6 ± 0.7 | 1.7 ± 0.3 | 1.3 ± 0.5 | 5 ± 0.2 | – | – | – | – | IC50 [2]: 0.4 ± 0.2 µM; IC50 [5]: 2.3 ± 0.6 µM |
| (17β)-17-ethynyl-17-hydroxy-2-{4-[1-(quinolin-2-ylcarbonyl)-L-prolyl]piperazin-1-yl}estra-1,3,5(10)-trien-3-yl dihydrogen phosphate [Compound 5] | – | – | – | – | – | – | – | – | – | times less toxic relative to RM-133, primary pancreas cells ([8]; normal cells): 1.8 times; times less toxic relative to RM-133, primary ovary cells ([9]; normal cells): 1.7 times |
| C#CC1(O)CCC2C3CCC4CC(O)C([N+]5([O-])CCN(C(=O)C6CCCN6C(=O)c6ccc7ccccc7n6)CC5)CC4(C)C3CCC21C [7 (N-oxime), {4-[(2β,3α,5α,17α)-3,17-dihydroxypregn-20-yn-2-yl]-4-oxidopiperazin-1-yl}[(2S)-1-(quinolin-2-ylcarbonyl)pyrrolidin-2-yl]methanone] | – | – | – | – | – | significant loss of activity | significant loss of activity | significant loss of activity | – | increased metabolic stability relative to RM-133 ([10]; human hepatic microsomes): 2.6 fold; IC50 [3]: > 50 µM; IC50 [11]: 43.7 µM; IC50 [7]: 29.9 µM |
| (3α,5α,17α)-pregn-20-yne-3,17-diol [11 (no side-chain; and 3α-OH)] | – | – | – | – | – | inactive | inactive | inactive | – | IC50 [3]: > 50 µM; IC50 [11]: > 50 µM; IC50 [7]: > 50 µM |
| C#C[C@@]1(O)CC[C@H]2[C@@H]3CC[C@H]4C[C@@H](N5CCN(C(=O)[C@@H]6CCCN6C(=O)c6ccc7ccccc7n6)CC5)CC[C@]4(C)[C@H]3CC[C@@]21C [15 (side-chain at 3β), {4-[(3β,5α,17α)-17-hydroxypregn-20-yn-3-yl]piperazin-1-yl}[(2S)-1-(quinolin-2-ylcarbonyl)pyrrolidin-2-yl]methanone] | – | > 50 | – | – | > 50 | completely inactive | completely inactive | completely inactive | > 50 | metabolic stability (% of remaining compound) ([12]; microsomes, 10 μM, pH 7.4): little to no variation on the metabolic stability relative to RM-133 |
| C#C[C@@]1(O)CC[C@H]2[C@@H]3CCc4cc(OC)c(C(=O)N5CCN(C(=O)[C@@H]6CCCN6C(=O)c6ccc7ccccc7n6)CC5)cc4[C@H]3CC[C@@]21C [Compound 25, [(17β)-17-ethynyl-17-hydroxy-3-methoxyestra-1,3,5(10)-trien-2-yl](4-{[(2S)-1-(quinolin-2-ylcarbonyl)pyrrolidin-2-yl]carbonyl}piperazin-1-yl)methanone] | 0.5 ± 0.2 | 3.5 ± 0.4 | 1.7 ± 0.4 | 0.8 ± 0.2 | 5.2 ± 1.6 | – | – | – | – | IC50 [2]: 0.3 ± 0.2 µM; IC50 [5]: 2.2 ± 0.1 µM |
| C#C[C@@]1(O)CC[C@H]2[C@@H]3CC[C@H]4C[C@H](OC(=O)N(C)C)CC[C@]4(C)[C@H]3CC[C@@]21C [12 (no side-chain; and 3-carbamate), (3α,5α,17α)-17-hydroxypregn-20-yn-3-yl dimethylcarbamate] | – | > 50 | – | – | 48.1 | inactive | inactive | inactive | 15.2 | – |
| (17β)-17-ethynyl-17-hydroxy-2-{4-[1-(quinolin-2-ylcarbonyl)-L-prolyl]piperazin-1-yl}estra-1,3,5(10)-trien-3-yl dimethylcarbamate [Compound 1] | – | – | – | – | – | – | – | – | – | more cytotoxic relative to RM-133, RPTEC ([13]; normal cells): 5.0 fold |
| CN1CCN(C(=O)[C@@H]2CCCN2C(=O)c2ccc3ccccc3n2)CC1 [10 (side-chain only), (4-methylpiperazin-1-yl)[(2S)-1-(quinolin-2-ylcarbonyl)pyrrolidin-2-yl]methanone] | – | > 50 | – | – | > 50 | completely inactive | completely inactive | completely inactive | > 50 | metabolic stability (% of remaining compound) ([10]; 10 μM, 40 μg human liver microsomes, result in words): more stable than steroid 12 lacking the 2β-side chain or RM-133 itself |
| C#C[C@@]1(O)CC[C@H]2[C@@H]3CC[C@H]4CC(=O)[C@@H](N5CCN(C(=O)[C@@H]6CCCN6C(=O)c6ccc7ccccc7n6)CC5)C[C@]4(C)[C@H]3CC[C@@]21C [2 (ketone), (2β,5α,17α)-17-hydroxy-2-(4-{[(2S)-1-(quinolin-2-ylcarbonyl)pyrrolidin-2-yl]carbonyl}piperazin-1-yl)pregn-20-yn-3-one] | – | 7.01 | – | – | 2.75 | – | – | 2 fold | 6.52 | Selectivity Index Pancreas [8]: 0.8; IC50 [8]: 5.41 µM; times more toxic relative to RM-133, primary pancreas cells [8]: 1.7 times; Selectivity Index Ovary [9]: 5.5; IC50 [9]: 15 µM; IC50 ([13]; Homo sapiens, RPTEC): 20.7 µM |
| (2β,3α,5α,17α)-3,17-dihydroxy-2-(1-methyl-4-t[(2S)-1-(quinolin-2-ylcarbonyl) pyrrolidin-2-yl]carbonylpiperazin-1-ium-1-yl)pregn-20-yne iodide [6 (CH3-salt)] | – | – | – | – | – | significant loss of activity | significant loss of activity | significant loss of activity | – | IC50 [3]: > 50 µM; IC50 [11]: > 50 µM; increased metabolic stability relative to RM-133 ([12]; microsomes): 2.4 fold; IC50 [7]: > 50 µM |
| C#C[C@@]1(O)CC[C@H]2[C@@H]3CCc4cc(OS(N)(=O)=O)c(N5CCN(C(=O)[C@@H]6CCCN6C(=O)c6ccc7ccccc7n6)CC5)cc4[C@H]3CC[C@@]21C [Compound 4, (17β)-17-ethynyl-17-hydroxy-2-{4-[1-(quinolin-2-ylcarbonyl)-L-prolyl]piperazin-1-yl}estra-1,3,5(10)-trien-3-yl sulfamate] | 0.3 ± 0.2 | 3 ± 0.2 | 1.6 ± 0.1 | 0.9 ± 0.3 | 3.1 ± 0.5 | – | – | – | – | IC50 [2]: 0.2 ± 0.01 µM; times less toxic relative to RM-133, primary pancreas cells [8]: 3.2 times; times less toxic relative to RM-133, primary ovary cells [9]: 2.9 times; IC50 [5]: 1.2 ± 0.4 µM; phenolic metabolite RM-581-OH (stability of potential prodrugs to hydrolysis) ([12]; 10 μM, pH 7.4): no trace of the phenolic metabolite RM-581-OH could be observed |
| C#C[C@@]1(O)CC[C@H]2[C@@H]3CC[C@H]4CC(=O)C(N5CCN(C(=O)[C@@H]6CCCN6C(=O)c6ccc7ccccc7n6)CC5)=C[C@]4(C)[C@H]3CC[C@@]21C [1 (enone), (5α,17α)-17-hydroxy-2-(4-{[(2S)-1-(quinolin-2-ylcarbonyl)pyrrolidin-2-yl]carbonyl}piperazin-1-yl)pregn-1-en-20-yn-3-one] | 0.03 | 0.59 | 0.002 | 0.002 | 0.24 | 11.3 fold | 2.3 fold | 22.9 fold | 3.16 | IC50 ([3]; listed as Enone 1): 0.6 µM; Selectivity Index Pancreas [8]: 3.7; IC50 [8]: 2.2 µM; times more toxic relative to RM-133, primary pancreas cells [8]: 4.3 times; Selectivity Index Ovary [9]: 38; IC50 [9]: 9.12 µM; times more toxic relative to RM-133, primary ovary cells ([9]; human, 3 days): 1.6 times; IC50 ([13]; Homo sapiens, RPTEC): 4.5 to 15.3 µM; IC50 [13]: 4.55 µM |
